Assay results reported in patent US10105446B2, “Pharmaceutical compositions for high-capacity targeted delivery” (Wake Forest University Health Sciences, priority 2013, dated 2018).

Legend:
[1] = system: C4-2 cells; experiment: Cytotoxicity, CellTiter-Glo cell viability assay, C4-2 cells; assay type: cell-based
Experimental: (§1) PC3, C4-2, and C4-2Luc cells were seeded at a density of 3,000 cells/well in 96-well plates and incubated at 37° C. under 5% CO2. Next day, the cells were treated with Dox, DAC+Dox, or DAC-D for 24 h. Next day the treatment was removed, cells were washed once with warm fresh media and incubated for another 48 h in fresh media. Cell counts were measured indirectly by measuring the ATP amounts using CellTiter-Glo® luminescent cell viability assay (Promega, Madison, Wis.) according to the manufacturer's protocol. In co-culture experiments, PC3 and C4-2Luc cells were each seeded at a density of 1,500 cells/well in 96-well plates. Co-cultured cells were treated with Dox, DAC+Dox, or DAC-D and cell viability was also measured using the CellTiter-Glo® assay. Luciferase levels were measured for co-cultures of PC3 and C4-2Luc cells using a luciferase reporter assay system (Promega). PC3 and C4-2Luc cells were seeded and treated as described above and the cells were lysed and luciferase activity was measured according to the manufacturer's protocol.

[2] = system: PC3 cells; experiment: Cytotoxicity, CellTiter-Glo cell viability assay, PC3 cells; assay type: cell-based
Experimental: as §1

[3] = system: PSMA+ C4-2 cells; experiment: Uptake/internalization by confocal microscopy and flow cytometry, PSMA+ C4-2 cells; assay type: cell-based
Experimental: (§2) Cells were seeded at 20,000 cells/well in 8-well Lab-Tek® II chambered #1.5 German coverglass system (Thermo Fisher Sci., Waltham, Mass.), and incubated at 37° C. under 5% CO2 for 2 days. Cells were incubated with 1 μM of DAC in which the dA16 aptamer was labeled with Quasar 570 at the 5′-terminus and the T16 aptamer was labeled with Quasar 670 dyes in RPMI with 10% FBS for 2 h at 37° C. Cells were washed with fresh media and DPBS, followed by a 5 min fixation with 3.7% formaldehyde in DPBS. Cells were visualized using a Zeiss LSM510 confocal microscope (Carl Zeiss, Oberkochen, Germany). Cells were also incubated with 1 μM of DAC-D (or the non-covalent DAC+D), for 2 h. DAC were only labeled with Quasar 670 for these studies as the Quasar 570 emission would interfere with the Dox emission. Cells were washed, fixed, and imaged using identical procedures.
(§3) PC3 and C4-2 cells were incubated with 1 μM of DAC for 2 h at 37° C. Dimers were fluorescently labeled with either Quasar 570 or 670 alone, or both. Cells were trypsinized and washed with PBS twice. Cells re-suspended in PBS were analyzed to measure their intracellular fluorescence using the Accuri™ C6 flow cytometer (BD Biosciences).

[4] = system: PSMA-null PC3 cells; experiment: Uptake/internalization by confocal microscopy and flow cytometry, PSMA-null PC3 cells; assay type: cell-based; details: 1 μM, 2 h, confocal microscopy
Experimental: as §2, §3

[5] = cited from earlier work
[6] = Temperature-dependent UV melting (thermal stability of dimeric aptamer complexes); assay type: physicochemical; details: UV absorbance at 260 nm, heating 0.7° C./min
Experimental: Temperature-dependent UV absorption spectra were obtained using a Beckman Coulter DU-800 UV-Vis spectrophotometer. Samples of DAC, DAC-D, and DAC+D were prepared. The temperature was increased at a rate of 0.7° C./min over the range 20-85° C. and absorbance at 260 nm was measured for each sample, (400 μL, 1 μM) concentration.

[7] = Determination of Dox:DNA ratios by absorbance; assay type: physicochemical
Experimental: DNA Ratios: DNA samples were prepared in dH2O, and absorbencies were measured from 200-800 nm using a Beckman Coulter DU800 spectrophotometer. A standard curve of Dox was established between 1 μM and 10 μM by using absorbencies at 494 nm at 85° C. To assess the amount of Dox covalently bound to DNA, the samples were heated to 85° C. before measuring the absorbance at 494 nm and 260 nm. The 260 nm wavelength was used to determine the DNA content in the sample and to determine the Dox:DNA ratio.

Compound: COc1cccc2c1C(=O)c1c(O)c3c(c(O)c1C2=O)C[C@@](O)(C(=O)CO)C[C@@H]3O[C@H]1C[C@H](N)[C@H](O)[C@H](C)O1 [Dox, doxorubicin]
- reduction in viability ([1]; 2 μM Dox, 24 h treatment + 48 h growth, cell line not specified in the sentence (PC3 and C4-2)): ~90%
- cytotoxicity (in words) ([1]; C4-2 cells): highly cytotoxic
- cytotoxicity (in words) [2]: highly cytotoxic
- Dox internalization / nuclear accumulation ([3]; 1 μM, 2 h, confocal microscopy, C4-2 cells): readily accumulated
- Dox internalization / nuclear accumulation ([4]; PC3 cells): readily accumulated
- pKa of the doxorubicin amino group [5]: 8.2

Compound: DAC: Dimer of PSMA DNA aptamer SZTI01 annealed through dCGGCA16GCCG / dCGGCT16GCCG tails (SEQ ID NO:5, 6) (chain 1 CGGCAAAAAAAAAAAAAAAAGCCG; chain 2 CGGCTTTTTTTTTTTTTTTTGCCG; DNA, backbone and methylation of C not given here; tails of DNA aptamer dimer, further chemistry not fully specified)
- dissociation temperature [6]: ~58 °C
- uptake of fluorescently-labeled aptamer ([3]; 1 μM, 2 h, Quasar 570/670 labels, confocal microscopy): strong signal
- uptake after pre-incubation with J591 PSMA-specific monoclonal antibody ([3]; C4-2 cells pre-incubated with J591): attenuated
- uptake of fluorescently-labeled aptamer ([4]; Quasar 570/670 labels): minimal uptake
- calc ratio (Dox bound per DAC) ([7]; Dox:DAC ratio 16x): 10.8
- calc ratio (Dox bound per DAC) ([7]; Dox:DAC ratio 24x): 14.18
- calc ratio (Dox bound per DAC) ([7]; Dox:DAC ratio 32x): 13.7156
- molar equivalents of doxorubicin that can be covalently bound to each DAC ([7]; titration): 14 molar equivalents
